Assay results: BigSolDB 2.1

O=c1c(O)c(-c2ccc(O)c(O)c2)oc2cc(O)cc(O)c12
solubility (mole fraction)
Settings	292.8 K	298.6 K	303.2 K	308.6 K	314.1 K	318.8 K	322.2 K	325.6 K	331.2 K	333.8 K
in ethanol	0.00135	0.00153	0.00165	0.00178	0.00193	0.00207	0.00218	0.0023	0.0025	0.00255
in methanol	0.000845	0.000919	0.000957	0.00104	0.00113	0.00127	0.00133	0.00142	0.00159	0.00163
in water	5.04e-05	5.51e-05	5.85e-05	6.18e-05	6.53e-05	6.7e-05	6.91e-05	7.13e-05	7.38e-05	7.53e-05
